One may read the Ki as the dissociation constant of the complex between target and ligand, obtained from inhibition or displacement. The low end stands for higher affinity, the high end for lower affinity.

Structures are written as SMILES.

A short description of the first assay: Binding affinity for convulsant site of GABA-A receptor in bovine cortical P2 membranes using [3H]TBOB as radioligand (Unstable). The format is cell membranes, Bos taurus.
As for `CC(C)(C)C1CSC(c2c(F)c(F)c(N=[N+]=[N-])c(F)c2F)SC1` (stereo unspecified), the Ki entry is reported as “Unstable”.

Another assay can be described thus: Binding affinity towards convulsant site of the GABAA receptor was determined in bovine cortical P2 membranes using [3H]TBOB as radioligand. Type of assay: cell membranes.
Molecule `CC(C)(C)C1CSC(C2=CC(=[N+]=[N-])C=C(Br)C2=O)SC1` (stereo unspecified) showed a Ki of 2.2 µM.

With `CC(C)(C)C1CSC(C2=CC(=[N+]=[N-])C=CC2=O)SC1` (stereo unspecified), affinity was put at a Ki of 14 µM.

Take `CC(C)(C)C1CS(=O)(=O)C(C2=CC(=[N+]=[N-])C=CC2=O)S(=O)(=O)C1` (stereo unspecified): the affinity corresponds to a Ki of 250 µM.

The molecule `CC(C)(C)C1CSC(c2ccccc2O)SC1` (stereo unspecified) returned a Ki of 1.8 µM.

On to `CC(C)(C)C1CS(=O)(=O)C(c2cc(O)c(Br)cc2[N+](=O)[O-])S(=O)(=O)C1` (stereo unspecified), for which the Ki was > 30 µM.

Regarding `CC(C)(C)C12COC(c3ccccc3)(OC1)OC2`, affinity was put at a Ki of 0.018 µM.

Take `CC(C)(C)C1CSC(c2cc([N+](=O)[O-])cc(Br)c2O)SC1` (stereo unspecified): the Ki is 0.22 µM.

With `CC(C)(C)C1CSC(c2ccccc2)SC1` (stereo unspecified), the inhibition constant (Ki) stood at 0.25 µM. This Ki and that of the molecule before are within 1.5-fold of each other.

For the molecule `CC(C)(C)C1CS(=O)(=O)C(C2=CC(=[N+]=[N-])C=C(Br)C2=O)S(=O)(=O)C1` (stereo unspecified), the Ki was > 30 µM.

As to `CC(C)(C)C1CSC(c2cc(O)ccc2[N+](=O)[O-])SC1` (stereo unspecified), the affinity, expressed as Ki, was 8 µM.

`CC(C)(C)C12COC(c3ccccc3O)(OC1)OC2` gave an inhibitory constant (Ki) of 0.059 µM. This Ki lies about 140-fold lower than the previous one.

The molecule `CC(C)(C)C1CS(=O)(=O)C(c2ccccc2O)S(=O)(=O)C1` (stereo unspecified) showed a Ki of 23.9 µM.

`CC(C)(C)C12COC(c3ccc(Br)cc3)(OC1)OC2` returned a Ki of 0.009 µM. This Ki lies about 2700-fold lower than the previous one.

For the molecule `CC(C)(C)C1CS(=O)(=O)C(c2cc([N+](=O)[O-])cc(Br)c2O)S(=O)(=O)C1` (stereo unspecified), the Ki was found to be 0.53 µM.

`CC(C)(C)C1CSC(c2ccc(Br)cc2)SC1` (stereo unspecified): the inhibitory constant (Ki) is 0.28 µM.

As for `CC(C)(C)C1CSC(c2cc([N+](=O)[O-])ccc2O)SC1` (stereo unspecified), the affinity corresponds to a Ki of 0.56 µM. Compared with the last molecule, the Ki is about 2-fold higher.

As for `CC(C)(C)C1CS(=O)(=O)C(c2c(F)c(F)c(N=[N+]=[N-])c(F)c2F)S(=O)(=O)C1` (stereo unspecified), the Ki was 0.18 µM.

The molecule `CC(C)(C)C1CS(=O)(=O)C(c2ccc(Br)cc2)S(=O)(=O)C1` (stereo unspecified) had an inhibition constant (Ki) of 0.003 µM.

For `CC(C)(C)C1CSC(C2=CC(=O)C=CC2=[N+]=[N-])SC1` (stereo unspecified), the Ki was determined as 30 µM.

For `CC(C)(C)C1CSC(C2=CC(=O)C(Br)=CC2=[N+]=[N-])SC1` (stereo unspecified), the affinity corresponds to a Ki of 3.6 µM.

For the molecule `CC(C)(C)C1CS(=O)(=O)C(c2ccccc2)S(=O)(=O)C1` (stereo unspecified), affinity was put at a Ki of 0.51 µM.

The molecule `CC(C)(C)C1CSC(c2cc(O)c(Br)cc2[N+](=O)[O-])SC1` (stereo unspecified) returned a Ki of 4.5 µM. This Ki is about 8.8-fold higher than that of the molecule before.

`CC(C)(C)C1CS(=O)(=O)C(c2cc(O)ccc2[N+](=O)[O-])S(=O)(=O)C1` (stereo unspecified) had a Ki of 52 µM.

`CC(C)(C)C12COC(C3=CC(=O)C(Br)=CC3=[N+]=[N-])(OC1)OC2`: affinity was put at a Ki of 0.6 µM.

Turning to `CC(C)(C)C1CS(=O)(=O)C(c2cc([N+](=O)[O-])ccc2O)S(=O)(=O)C1` (stereo unspecified), the Ki came to 18 µM.

Values taken from ChEMBL document CHEMBL1127485, “Photoactivatable 2-(4'-azidotetrafluorophenyl)-5-tert-butyl-1,3-dithiane-bis- sulfone and related compounds as candidate irreversible probes for the GABA-gated chloride channels” (J Med Chem, 1994).
